Measurements reported in US6824760B2, “Imaging agents, precursors thereof and methods of manufacture” (priority 2001, dated 2004).
Where two headings read alike, the source gives them in different places.

Columns and labels:
[1] = tested on: breast cancer cells, cell line 13762; test: In vitro cellular uptake assay; type: cell-based
Description: After 0.5-4 hours incubation, the cells were washed with phosphate buffered saline 3 times and followed by trypsin to loosen the cells. The cells were counted by a gamma counter.

[2] = tested on: Fischer 344 tumor-bearing rats; conditions: for Blood / Bone / Heart / Intestine / Kidney / Liver / Lung / Muscle / Spleen / Stomach / Thyroid / Tumor / Tumor/Blood / Tumor/Lung / Tumor/Muscle: breast tumor-bearing Fischer 344 rats, 10 μCi/rat i.v.; for Tumor/Blood / Tumor/Lung / Tumor/Muscle: ratio
Description: Biodistribution studies were conducted at 30 min, 2 and 4 hours.

[3] = tumor-bearing rats, 30 min, 2 and 4 hours

CC(N)(Cc1ccc(OCCC[18F])cc1)C(=O)O (stereo not drawn) [^18F-FPAMT, 3-^18F-fluoropropyl-α-methyltyrosine]
cellular uptake compared with ^18F-FDG ([1]; breast cancer cell line 13762, 0.5 and 2 hours incubation): slightly higher uptake than ^18F-FDG | cellular uptake as a function of time ([1]; breast cancer cell line 13762, 2 μCi, 0.5-4 hours incubation): increased uptake | Blood ([2]; 30 min): 0.638 ± 0.021 % of injected dose per gram of tissue weight | Bone ([2]; 30 min): 0.447 ± 0.045 % of injected dose per gram of tissue weight | Heart ([2]; 30 min): 0.445 ± 0.019 % of injected dose per gram of tissue weight | Intestine ([2]; 30 min): 0.838 ± 0.058 % of injected dose per gram of tissue weight | Kidney ([2]; 30 min): 8.060 ± 0.101 % of injected dose per gram of tissue weight | Liver ([2]; 30 min): 6.542 ± 1.142 % of injected dose per gram of tissue weight | Lung ([2]; 30 min): 4.812 ± 0.457 % of injected dose per gram of tissue weight | Muscle ([2]; 30 min): 0.318 ± 0.043 % of injected dose per gram of tissue weight | Spleen ([2]; 30 min): 0.404 ± 0.023 % of injected dose per gram of tissue weight | Stomach ([2]; 30 min): 0.440 ± 0.052 % of injected dose per gram of tissue weight | Thyroid ([2]; 30 min): 0.730 ± 0.126 % of injected dose per gram of tissue weight | Tumor ([2]; 30 min): 0.454 ± 0.016 % of injected dose per gram of tissue weight | Blood ([2]; 2 h): 0.298 ± 0.032 % of injected dose per gram of tissue weight | Bone ([2]; 2 h): 1.256 ± 0.117 % of injected dose per gram of tissue weight | Heart ([2]; 2 h): 0.219 ± 0.024 % of injected dose per gram of tissue weight | Intestine ([2]; 2 h): 0.627 ± 0.209 % of injected dose per gram of tissue weight | Kidney ([2]; 2 h): 7.721 ± 1.027 % of injected dose per gram of tissue weight | Liver ([2]; 2 h): 3.587 ± 0.500 % of injected dose per gram of tissue weight | Lung ([2]; 2 h): 0.541 ± 0.084 % of injected dose per gram of tissue weight | Muscle ([2]; 2 h): 0.154 ± 0.017 % of injected dose per gram of tissue weight | Spleen ([2]; 2 h): 0.215 ± 0.029 % of injected dose per gram of tissue weight | Stomach ([2]; 2 h): 0.190 ± 0.024 % of injected dose per gram of tissue weight | Thyroid ([2]; 2 h): 0.860 ± 0.045 % of injected dose per gram of tissue weight | Tumor ([2]; 2 h): 0.312 ± 0.024 % of injected dose per gram of tissue weight | Blood ([2]; 4 h): 0.081 ± 0.007 % of injected dose per gram of tissue weight | Bone ([2]; 4 h): 1.502 ± 0.214 % of injected dose per gram of tissue weight | Heart ([2]; 4 h): 0.054 ± 0.007 % of injected dose per gram of tissue weight | Intestine ([2]; 4 h): 0.148 ± 0.015 % of injected dose per gram of tissue weight | Kidney ([2]; 4 h): 1.467 ± 0.236 % of injected dose per gram of tissue weight | Liver ([2]; 4 h): 0.930 ± 0.049 % of injected dose per gram of tissue weight | Lung ([2]; 4 h): 0.105 ± 0.008 % of injected dose per gram of tissue weight | Muscle ([2]; 4 h): 0.055 ± 0.012 % of injected dose per gram of tissue weight | Spleen ([2]; 4 h): 0.067 ± 0.009 % of injected dose per gram of tissue weight | Stomach ([2]; 4 h): 0.070 ± 0.002 % of injected dose per gram of tissue weight | Thyroid ([2]; 4 h): 1.220 ± 0.260 % of injected dose per gram of tissue weight | Tumor ([2]; 4 h): 0.069 ± 0.003 % of injected dose per gram of tissue weight | Tumor/Blood ([2]; 30 min): 0.712 ± 0.013 | Tumor/Lung ([2]; 30 min): 0.095 ± 0.006 | Tumor/Muscle ([2]; 30 min): 1.464 ± 0.138 | Tumor/Blood ([2]; 2 h): 1.079 ± 0.171 | Tumor/Lung ([2]; 2 h): 0.599 ± 0.079 | Tumor/Muscle ([2]; 2 h): 2.057 ± 0.176 | Tumor/Blood ([2]; 4 h): 0.853 ± 0.036 | Tumor/Lung ([2]; 4 h): 0.658 ± 0.081 | Tumor/Muscle ([2]; 4 h): 1.322 ± 0.341 | Tumor/blood ratio as a function of time [2, 3]: increased as a function of time | Tumor/muscle ratio as a function of time [2, 3]: increased as a function of time | bone uptake (suggesting in vivo defluorination) ([2]; tumor-bearing rats, 2 hours): increased bone uptake
